Measured values from US6274715A, “Tricyclic erythromycin derivatives” (priority 1997, dated 2001).
Converted amounts (≈) assume the structure as drawn.

Key:
Type in all cases: cell-based
[1] = system: STREPTOCOCCUS PYOGENES PIU 2548; test: In vitro antibacterial activity, MIC, BHI agar dilution; settings: S. pyogenes PIU 2548, unit assumed
[2] = system: STAPHYLOCOCCUS AUREUS ATCC 6538P; test: as above; settings: S. aureus ATCC 6538P, 35-37° C., 20 to 24 hours, unit assumed
[3] = system: STREPTOCOCCUS PYOGENES 930; test: as above; settings: S. pyogenes 930, unit assumed
[4] = system: PSEUDOMONAS AERUGINOSA K799/WT; test: as above; settings: P. aeruginosa K799/WT, unit assumed
[5] = system: STAPHYLOCOCCUS AUREUS A5177; test: as above; settings: S. aureus A5177, unit assumed
ESCHERICHIA COLI JUHL = settings: E. coli JUHL; BHI agar; unit assumed
[6] = system: PSEUDOMONAS AERUGINOSA BMH10; test: In vitro antibacterial activity, MIC, BHI agar dilution; settings: P. aeruginosa BMH10, unit assumed
[7] = system: STAPHYLOCOCCUS AUREUS CMX 642A; test: as above; settings: S. aureus CMX 642A, unit assumed
[8] = system: KLEBSIELLA PNEUMONIAE ATCC 8045; test: as above; settings: K. pneumoniae ATCC 8045, unit assumed
[9] = system: ACINETOBACTER CALCOACETICUS CMX 669; test: as above; settings: A. calcoaceticus CMX 669, unit assumed
ESCHERICHIA COLI H560 = test: as above; settings: E. coli H560, unit assumed
ESCHERICHIA COLI DC-2 = test: as above; settings: E. coli DC-2, unit assumed
[10] = system: STAPHYLOCOCCUS AUREUS 1775; test: as above; settings: S. aureus 1775, unit assumed
[11] = system: ENTEROBACTER AEROGENES ATCC 13048; test: as above; settings: E. aerogenes ATCC 13048, unit assumed
[12] = system: STREPTOCOCCUS PYOGENES EES61; test: as above; settings: S. pyogenes EES61, unit assumed
[13] = system: STREPTOCOCCUS BOVIS A-5169; test: as above; settings: S. bovis A-5169, unit assumed
[14] = system: PROVIDENCIA STUARTII CMX 640; settings: P. stuartii CMX 640; BHI agar; unit assumed
[15] = system: STAPHYLOCOCCUS AUREUS NCTC10649M; test: In vitro antibacterial activity, MIC, BHI agar dilution; settings: S. aureus NCTC10649M, unit assumed
[16] = system: STAPHYLOCOCCUS EPIDERMIDIS 3519; settings: S. epidermidis 3519; BHI agar; unit assumed
STR[…] 508 = test: In vitro antibacterial activity, MIC, BHI agar dilution; settings: S. agalactiae CMX 508, unit assumed
Procedure, shortened: (§1)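 BHI agar dilution: twelve plates with successive compound dilutions, inoculated by replicator with 1:100 culture dilutions (1:10 for slow growers such as Micrococcus and Streptococcus), 20 to 24 hours at 35-37° C. MIC was the lowest concentration giving no growth, slight haze or sparse isolated colonies versus drug-free control; erythromycin A as class reference.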

M[…] ATCC 9341 = test: as above; settings: M. luteus ATCC 9341, unit assumed
Procedure, shortened: as §1

M[…] ATCC 4698 = test: as above; settings: M. luteus ATCC 4698, unit assumed
Procedure, shortened: as §1

EN[…] ATCC 8043 = test: as above; settings: E. faecium ATCC 8043, unit assumed
Procedure, shortened: as §1

CANDIDA ALBICANS CCH 442 = test: as above; settings: C. albicans CCH 442, unit assumed
[17] = system: MYCOBACTERIUM SMEGMATIS ATCC 114; test: as above; settings: M. smegmatis ATCC 114, unit assumed
ESCHERICHIA COLI SS = test: as above; settings: E. coli SS, unit assumed
[18] = system: STAPHYLOCOCCUS AUREUS A-5278; test: as above; settings: S. aureus A-5278, unit assumed
[19] = system: PSEUDOMONAS AERUGINOSA 5007; test: as above; settings: P. aeruginosa 5007, unit assumed
PSEUDOMONAS CEPACIA 296I = test: as above; settings: P. cepacia 296I, unit assumed
[20] = system: PSEUDOMONAS AERUGINOSA DPHD-2862; test: as above; settings: P. aeruginosa DPHD-2862, unit assumed
[21] = system: PSEUDOMONAS AERUGINOSA K799/61; test: as above; settings: P. aeruginosa K799/61, unit assumed
H. Influenza Dill AMP R = test: In vitro antibacterial activity against H. Influenza Dill AMP R, MIC; settings: separate assay, unit assumed
Procedure, shortened: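 Agar dilution in Brain Heart Infusion agar, twelve successive compound dilutions, inoculated by Steers replicator with 1:100 (1:10 for slow growers) culture dilutions. Incubation 35-37° C. for 20 to 24 hours; MIC is lowest concentration giving no growth, slight haze or sparse colonies versus drug-free control.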

[22] = system: PSEUDOMONAS AERUGINOSA DPHD-5263; test: In vitro antibacterial activity, MIC, BHI agar dilution; settings: P. aeruginosa DPHD-5263, unit assumed
ESCHERICHIA COLI KNK 437 = settings: E. coli KNK 437; BHI agar; unit assumed
[23] = system: STAPHYLOCOCCUS AUREUS CMX 553; test: In vitro antibacterial activity, MIC, BHI agar dilution; settings: S. aureus CMX 553, unit assumed

CCC1OC(=O)C(C)C(=O)C(C)C(OC2OC(C)CC(N(C)C)C2O)C(C)(OC)CC(C)C2=NC(COCSC)CN3C(=O)OC1(C)C3C2C (stereo not drawn) [Example 99]
MIC [1]: 0.39 µg/mL (≈ 0.536 µM)
MIC [2]: 0.39 µg/mL (≈ 0.536 µM)
MIC [3]: > 100 µg/mL
MIC [4]: > 100 µg/mL
MIC [5]: 0.39 µg/mL (≈ 0.536 µM)
MIC (ESCHERICHIA COLI JUHL): > 100 µg/mL
MIC [6]: > 100 µg/mL
MIC [7]: 0.39 µg/mL (≈ 0.536 µM)
MIC [8]: > 100 µg/mL
MIC [9]: 100 µg/mL (≈ 137 µM)
MIC (ESCHERICHIA COLI H560): > 100 µg/mL
MIC (ESCHERICHIA COLI DC-2): > 100 µg/mL
MIC [10]: > 100 µg/mL
MIC [11]: > 100 µg/mL
MIC [12]: 0.05 µg/mL (≈ 0.0687 µM)
MIC [13]: 0.05 µg/mL (≈ 0.0687 µM)
MIC [14]: > 100 µg/mL
MIC [15]: 0.39 µg/mL (≈ 0.536 µM)
MIC [16]: 0.39 µg/mL (≈ 0.536 µM)
MIC (STR[…] 508): 0.05 µg/mL (≈ 0.0687 µM)
MIC (M[…] ATCC 9341): 0.1 µg/mL (≈ 0.137 µM)
MIC (M[…] ATCC 4698): 0.39 µg/mL (≈ 0.536 µM)
MIC (EN[…] ATCC 8043): 0.1 µg/mL (≈ 0.137 µM)
MIC (CANDIDA ALBICANS CCH 442): > 100 µg/mL
MIC [17]: 3.1 µg/mL (≈ 4.26 µM)
MIC (ESCHERICHIA COLI SS): 0.78 µg/mL (≈ 1.07 µM)
MIC [18]: > 100 µg/mL
MIC [19]: > 100 µg/mL
MIC (PSEUDOMONAS CEPACIA 296I): > 100 µg/mL
MIC [20]: > 100 µg/mL
MIC [21]: 6.2 µg/mL (≈ 8.52 µM)
MIC (H. Influenza Dill AMP R): 32 µg/mL (≈ 44 µM)
MIC [22]: > 100 µg/mL
MIC (ESCHERICHIA COLI KNK 437): > 100 µg/mL
MIC [23]: 0.39 µg/mL (≈ 0.536 µM)

CC[C@H]1OC(=O)[C@H](C)C(=O)[C@H](C)[C@@H](O[C@@H]2O[C@H](C)C[C@H](N(C)C)[C@H]2O)[C@](C)(OC)C[C@@H](C)C2=NC3CN(S(=O)(=O)Cc4ccccc4[N+](=O)[O-])CC3N3C(=O)O[C@@]1(C)[C@H]3[C@H]2C (stereo partly drawn) [Example 123]
MIC [1]: 3.1 µg/mL (≈ 3.53 µM)
MIC [2]: 1.56 µg/mL (≈ 1.78 µM)
MIC [3]: > 100 µg/mL
MIC [4]: > 100 µg/mL
MIC [5]: 1.56 µg/mL (≈ 1.78 µM)
MIC (ESCHERICHIA COLI JUHL): > 100 µg/mL
MIC [6]: > 100 µg/mL
MIC [7]: 3.1 µg/mL (≈ 3.53 µM)
MIC [8]: > 100 µg/mL
MIC [9]: > 100 µg/mL
MIC (ESCHERICHIA COLI H560): > 100 µg/mL
MIC (ESCHERICHIA COLI DC-2): > 100 µg/mL
MIC [10]: > 100 µg/mL
MIC [11]: > 100 µg/mL
MIC [12]: 0.1 µg/mL (≈ 0.114 µM)
MIC [13]: 0.1 µg/mL (≈ 0.114 µM)
MIC [14]: > 100 µg/mL
MIC [15]: 3.1 µg/mL (≈ 3.53 µM)
MIC [16]: 3.1 µg/mL (≈ 3.53 µM)
MIC (STR[…] 508): 0.1 µg/mL (≈ 0.114 µM)
MIC (M[…] ATCC 9341): 0.39 µg/mL (≈ 0.444 µM)
MIC (M[…] ATCC 4698): 1.56 µg/mL (≈ 1.78 µM)
MIC (EN[…] ATCC 8043): 0.39 µg/mL (≈ 0.444 µM)
MIC (CANDIDA ALBICANS CCH 442): > 100 µg/mL
MIC [17]: 12.5 µg/mL (≈ 14.2 µM)
MIC (ESCHERICHIA COLI SS): 6.2 µg/mL (≈ 7.06 µM)
MIC [18]: > 100 µg/mL
MIC [19]: > 100 µg/mL
MIC (PSEUDOMONAS CEPACIA 296I): > 100 µg/mL
MIC [20]: > 100 µg/mL
MIC [21]: 25 µg/mL (≈ 28.5 µM)
MIC (H. Influenza Dill AMP R): 128 µg/mL (≈ 146 µM)
MIC [22]: > 100 µg/mL
MIC (ESCHERICHIA COLI KNK 437): > 100 µg/mL
MIC [23]: 3.1 µg/mL (≈ 3.53 µM)

CCC1OC(=O)C(C)C(=O)C(C)C(OC2OC(C)CC(N(C)C)C2O)C(C)(OC)CC(C)C2=NCC(CSc3ccccc3)(CN(C)C)N3C(=O)OC1(C)C3C2C (stereo not drawn) [Example 135]
MIC [1]: 1.56 µg/mL (≈ 1.91 µM)
MIC [2]: 1.56 µg/mL (≈ 1.91 µM)
MIC [3]: > 100 µg/mL
MIC [4]: > 100 µg/mL
MIC [5]: 1.56 µg/mL (≈ 1.91 µM)
MIC (ESCHERICHIA COLI JUHL): > 100 µg/mL
MIC [6]: > 100 µg/mL
MIC [7]: 3.1 µg/mL (≈ 3.79 µM)
MIC [8]: > 100 µg/mL
MIC [9]: > 100 µg/mL
MIC (ESCHERICHIA COLI H560): > 100 µg/mL
MIC (ESCHERICHIA COLI DC-2): > 100 µg/mL
MIC [10]: > 100 µg/mL
MIC [11]: > 100 µg/mL
MIC [12]: 0.2 µg/mL (≈ 0.245 µM)
MIC [13]: 0.1 µg/mL (≈ 0.122 µM)
MIC [14]: > 100 µg/mL
MIC [15]: 3.1 µg/mL (≈ 3.79 µM)
MIC [16]: 3.1 µg/mL (≈ 3.79 µM)
MIC (STR[…] 508): 0.2 µg/mL (≈ 0.245 µM)
MIC (M[…] ATCC 9341): 0.2 µg/mL (≈ 0.245 µM)
MIC (M[…] ATCC 4698): 1.56 µg/mL (≈ 1.91 µM)
MIC (EN[…] ATCC 8043): 0.39 µg/mL (≈ 0.477 µM)
MIC (CANDIDA ALBICANS CCH 442): > 100 µg/mL
MIC [17]: 1.56 µg/mL (≈ 1.91 µM)
MIC (ESCHERICHIA COLI SS): 1.56 µg/mL (≈ 1.91 µM)
MIC [18]: > 100 µg/mL
MIC [19]: > 100 µg/mL
MIC (PSEUDOMONAS CEPACIA 296I): > 100 µg/mL
MIC [20]: > 100 µg/mL
MIC [21]: 6.2 µg/mL (≈ 7.59 µM)
MIC (H. Influenza Dill AMP R): 64 µg/mL (≈ 78.3 µM)
MIC [22]: > 100 µg/mL
MIC (ESCHERICHIA COLI KNK 437): > 100 µg/mL
MIC [23]: 3.1 µg/mL (≈ 3.79 µM)
